Reference: US20260159500A1, “KINESIN KIF18A INHIBITOR AND USE THEREOF” (SHANGHAI APEIRON THERAPEUTICS COMPANY LIMITED, priority 2022, published 2026)

Key:
[1] = target: T1, Human KIF18A (amino acid sequence 1-417) (Homo sapiens, UniProt Q8NI77); assay: Enzymatic activity test (ADP-Glo, microtubule-stimulated KIF18A ATPase); assay type: biochemical; details: 60 μg/mL microtubules, 25 μM ATP, 2.5 nM KIF18A protein, 120 min at ambient temperature, read-out: KIF18A_nM
T1 construct: purchased Viva Biotech (Shanghai) Ltd
T1 sequence (Q8NI77 1-417): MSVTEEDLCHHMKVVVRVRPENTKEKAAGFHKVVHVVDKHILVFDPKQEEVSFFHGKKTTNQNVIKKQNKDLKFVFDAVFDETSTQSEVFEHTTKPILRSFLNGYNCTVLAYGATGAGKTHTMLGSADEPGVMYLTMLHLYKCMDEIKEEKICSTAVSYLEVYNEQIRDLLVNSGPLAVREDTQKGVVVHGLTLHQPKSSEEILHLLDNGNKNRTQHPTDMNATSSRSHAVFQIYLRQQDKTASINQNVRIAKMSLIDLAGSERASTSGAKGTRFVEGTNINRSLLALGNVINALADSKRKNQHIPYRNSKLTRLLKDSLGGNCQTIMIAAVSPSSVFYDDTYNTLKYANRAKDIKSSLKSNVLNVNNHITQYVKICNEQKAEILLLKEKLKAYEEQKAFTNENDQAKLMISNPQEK
Method in brief: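 Microtubule-stimulated ATPase of KIF18A(1-417) run with 60 μg/mL microtubules, 25 μM ATP and 2.5 nM enzyme, compounds at 0-10 μM final, 120 min at ambient temperature. ADP formed was read by ADP-Glo chemiluminescence after two 30-min reagent incubations.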

[2] = tested on: OVCAR3 cells; assay: Cell proliferation activity test in OVCAR3 cells (CyQUANT Direct); assay type: cell-based; details: Homo sapiens, OVCAR-3, 72 h, 3 days incubation, CyQUANT fluorescence detection, read-out: OVCAR-3_IC50_nM
Method in brief: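 Log-phase cells in RPMI-1640 with 10% FBS were seeded overnight, then exposed to compound at final 0–10 μM (0.2% DMSO) for 3 days at 37 °C, 5% CO2. Proliferation was read by CyQUANT Direct fluorescence after 60 min at 37 °C.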

[3] = tested on: HT29 cells; assay: CyQuant cell proliferation activity test in HT29 cells; assay type: cell-based; details: Homo sapiens, HT-29, 72 h, 2000 cells per well, 3 days incubation, IC50 by XLFIT, read-out: HT29_IC50_nM
Method in brief: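 Cells seeded at 2000/well in RPMI-1640 with 10% FBS, overnight, then exposed 3 days at 37 °C to compound from 3000 nM top, 3-fold, 9 points, 0.2% DMSO. CyQuant read after 1 h; IC50 from curve fit.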

| IC50 [1] [nM] | IC50 [2] [nM] | IC50 [3] [nM] | SMILES |
| --- | --- | --- | --- |
| 943 | 47 | 55 | CNc1ccc2cc(NC(=O)c3ccc(NS(=O)(=O)CCO)cc3N3CCC4(CC3)CC4)c(F)c(N3CCC(F)(F)CC3)c2n1 [Example 79, N-(8-(4,4-difluoropiperidin-1-yl)-7-fluoro-2-(methylamino)quinolin-6-yl)-4-((2-hydroxyethyl)sulfonamido)-2-(6-azaspiro[2.5]oct-6-yl)benzamide] |
| 174 | 17 | 22 | C[C@@H](CO)S(=O)(=O)Nc1ccc(C(=O)Nc2cc3cccnc3c(N3CCC(F)(F)CC3)c2F)c(N2CCC3(CC2)CC3)c1 [Example 99, 2-{6-azaspiro[2.5]octan-6-yl}-N-[8-(4,4-difluoropiperidin-1-yl)-7-fluoroquinolin-6-yl]-4-[(2S)-1-hydroxypropane-2-sulfonamido]benzamide] |
| 232 | 420 | 372 | COc1ccc2cc(NC(=O)c3ccc(NS(=O)(=O)CCO)cc3N3CCC4(CC3)CC4)cc(N3CCC(F)(F)CC3)c2n1 [Example 65, N-(8-(4,4-difluoropiperidin-1-yl)-2-methoxyquinolin-6-yl)-4-(2-hydroxyethylsulfonamide)-2-(6-azaspiro[2.5]octan-6-yl)benzamide] |
| 39 | 12 | 14 | O=C(Nc1cc2cccnc2c(N2CCC(F)(F)CC2)n1)c1c(F)cc(NS(=O)(=O)CCO)cc1N1CCC2(CC1)CC2 [Example 46, N-(8-(4,4-difluoropiperidin-1-yl)-1,7-naphthyridin-6-yl)-2-fluoro-4-((2-hydroxyethyl)sulfonamido)-6-(6-azaspiro[2.5]octan-6-yl)benzamide] |
| 38 | 4 | 4 | O=C(Nc1cc(N2CCC(F)(F)CC2)c2ncsc2c1)c1ccc(NS(=O)(=O)CCO)cc1N1CCC2(CC1)CC2 [Example 41, 2-{6-Azaspiro[2.5]octan-6-yl}-N-[4-(4,4-difluoropiperidin-1-yl)-1,3-benzothiazol-6-yl]-4-(2-hydroxyethanesulfonamido) benzamide] |
| 27 | 9 | 13 | O=C(Nc1cn2ccnc2c(N2CCC(F)(F)CC2)n1)c1ccc(NS(=O)(=O)CCO)cc1N1CCC2(CC1)CC2 [Example 13, N-(8-(4,4-difluoropiperidin-1-yl)imidazolo[1,2-a]pyrazin-6-yl)-4-((2-hydroxyethyl)sulfonamide)-2-(6-azaspiro[2.5]octan-6-yl)benzamide] |
| 28 | 6 | 7 | O=C(Nc1cc2c(c(N3CCC(F)(F)CC3)n1)COC2)c1ccc(NS(=O)(=O)CCO)cc1N1CCC2(CC1)CC2 [Example 5, N-(4-(4,4-difluoropiperidin-1-yl)-1,3-dihydrofuro[3,4-c]pyridin-6-yl)-4-(2-hydroxyethylsulfonamido)-2-(6-azaspiro[2.5]octan-6-yl)benzamide] |
| 63 | 166 | 446 | Cn1cnc2cc(NC(=O)c3ccc(NS(=O)(=O)CCO)cc3N3CCC4(CC3)CC4)nc(N3CCC(F)(F)CC3)c21 [Example 34] |
| 223 | 34 | 56 | CCOC(=O)c1cnc2c(N3CCC(F)(F)CC3)cc(NC(=O)c3ccc(NS(=O)(=O)CCO)cc3N3CCC4(CC3)CC4)cc2c1 [Example 86, Ethyl 6-(2-{6-azaspiro[2.5]octan-6-yl}-4-(2-hydroxyethanesulfonamido)benzoylamino)-8-(4,4-difluoropiperidin-1-yl)quinoline-3-carboxylate] |
| 10 | > 3000 | > 3000 | O=C(O)c1cnc2c(N3CCC(F)(F)CC3)cc(NC(=O)c3ccc(NS(=O)(=O)CCO)cc3N3CCC4(CC3)CC4)cc2c1 [Example 87, 6-(2-{6-azaspiro[2.5]octan-6-yl}-4-(2-hydroxyethanesulfonamido)benzoylamino)-8-(4,4-difluoropiperidin-1-yl)quinoline-3-carboxylic acid] |
| 100 | > 10000 | > 10000 | O=C(Nc1nc2c(c(N3CCC(F)(F)CC3)n1)CNC2)c1ccc(NS(=O)(=O)CCO)cc1N1CCC2(CC1)CC2 [Example 7, N-(4-(4,4-difluoropiperidin-1-yl)-6,7-dihydro-5H-pyrrolo[3,4-d]pyrimidin-2-yl)-4-(2-hydroxyethylsulfonamido)-2-(6-azaspiro[2.5]octan-6-yl)benzamide] |
| > 3000 | 1030 | 1410 | O=C(Nc1cc2cccnc2c(N2CCC(F)(F)CC2)c1Cl)c1ccc(NS(=O)(=O)CCO)cc1N1CCC2(CC1)CC2 [Example 73, N-(7-chloro-8-(4,4-difluoropiperidin-1-yl)quinolin-6-yl)-4-((2-hydroxyethyl)sulfonamido)-2-(6-azaspiro[2.5]oct-6-yl)benzamide] |
| 1220 | 1340 | 1430 | O=C(Nc1cc2cccnc2c(N2CCN(CC(F)(F)F)CC2)n1)c1ccc(NS(=O)(=O)CCO)cc1N1CCC2(CC1)CC2 [Example 49, 4-(2-hydroxyethylsulfonamido)-2-(6-azaspiro[2.5]octan-6-yl)-N-(8-(4-(2,2,2-trifluoroethyl)piperazin-1-yl)-1,7-naphthyridin-6-yl)benzamide] |
| 8 | 347 | 927 | O=C(Nc1nc(N2CCC(F)(F)CC2)c2occc2n1)c1ccc(NS(=O)(=O)CCO)cc1N1CCC2(CC1)CC2 [Example 32, N-(4-(4,4-difluoropiperidin-1-yl)furo[3,2-d]pyrimidin-2-yl)-4-((2-hydroxyethyl)sulfanilamide)-2-(6-azaspiro[2.5]octan-6-yl)benzamide] |
| 9 | 18 | 20 | O=C(Nc1cc2cccnc2c(N2CCC(F)(F)CC2)c1F)c1cnc(NS(=O)(=O)CCO)cc1N1CCC2(CC1)CC2 [Example 80, N-(8-(4,4-difluoropiperidin-1-yl)-7-fluoroquinolin-6-yl)-6-((2-hydroxyethyl)sulfonamido)-4-(6-azaspiro[2.5]oct-6-yl)nicotinamide] |
| 46 | 34 | 31 | O=C(Nc1cc2ccc(O)nc2c(N2CCC(F)(F)CC2)c1F)c1ccc(NS(=O)(=O)CCO)cc1N1CCC2(CC1)CC2 [Example 76, N-(8-(4,4-difluoropiperidin-1-yl)-7-fluoro-2-hydroxyquinolin-6-yl)-4-((2-hydroxyethyl)sulfonamido)-2-(6-azaspiro[2.5]oct-6-yl)benzamide] |
| 12 | 16 | 35 | O=C(Nc1cc(N2CCC(F)(F)CC2)c2ncnn2c1)c1ccc(NS(=O)(=O)CCO)cc1N1CCC2(CC1)CC2 [Example 18] |
| 13 | 23 | 33 | Cc1nnc2cc(NC(=O)c3ccc(NS(=O)(=O)CCO)cc3N3CCC4(CC3)CC4)nc(N3CCC(F)(F)CC3)n12 [Example 27, N-(5-(4,4-difluoropiperidin-1-yl)-3-methyl-[1,2,4]triazolo[4,3-c]pyrimidin-7-yl)-4-(2-hydroxyethylsulfonamido)-2-(6-azaspiro[2.5]octan-6-yl)benzamide] |
| 173 | 13 | 16 | Nc1cnc2c(N3CCC(F)(F)CC3)c(F)c(NC(=O)c3ccc(NS(=O)(=O)CCO)cc3N3CCC4(CC3)CC4)cc2c1 [Example 91, N-[3-amino-8-(4,4-difluoropiperidin-1-yl)-7-fluoroquinolin-6-yl]-2-{6-azaspiro[2.5]octan-6-yl}-4-(2-hydroxyethanesulfonamido)benzamide] |
| 71 | 8 | 9 | O=C(Nc1cc2occc2c(N2CCC(F)(F)CC2)n1)c1ccc(NS(=O)(=O)CCO)cc1N1CCC2(CC1)CC2 [Example 31, N-(4-(4,4-difluoropiperidin-1-yl)furo[3,2-c]pyridin-6-yl)-4-(2-hydroxyethylsulfonamido)-2-(6-azaspiro[2.5]octan-6-yl)benzamide] |
| 13 | 18 | 28 | O=C(Nc1cn2cnnc2c(N2CCC(F)(F)CC2)n1)c1ccc(NS(=O)(=O)CCO)cc1N1CCC2(CC1)CC2 [Example 19, N-(8-(4,4-difluoropiperidin-1-yl)-[1,2,4]triazolo[4,3-a]pyrazin-6-yl)-4-((2-hydroxyethyl)sulfonamido)-2-(6-azaspiro[2.5]oct-6-yl)benzamide] |
| 34 | 12 | 13 | O=C(Nc1cc2ccncc2c(N2CCC(F)(F)CC2)n1)c1ccc(NS(=O)(=O)CCO)cc1N1CCC2(CC1)CC2 [Example 56] |
